Test results published in patent US20250332183A1, “COMPOSITIONS AND METHODS FOR THE STIMULATION OF INTERMEDIATE MACROPHAGES AND TREATMENTS THEREWITH” (priority 2024, published 2025).
“Also recorded” adds a separate entry of the source.

Experiments:
[1] = tested on: preterm lamb model of BPD; assay: Respiratory system mechanics (ventilator, forced oscillation technique, methacholine challenge); assay type: in vivo
Method: Respiratory system mechanics assessments with methacholine challenge. The respiratory system mechanics were assessed for the early-stage study (DOL1-10) and late-stage study (DOL10-90). For the early-stage research, the Drager ventilator recorded respiratory system mechanics every 5 min while the PT lambs were intubated and mechanically ventilated. The parameters were dynamic lung compliance and resistance. The inventors averaged the parameters every 12 h.
For the early and late-stage studies, after the lambs were extubated and transitioned to noninvasive respiratory support and spontaneously breathing (DOL7-10) and thereafter to DOL90, the inventors used forced oscillometry (FOT; model Tremoflo N-100; Thorasys, Thoracic Medical Systems Inc., Montreal, QC, Canada), with a filter (Humid-Vent Filter Small A, Teleflex Medical, Ireland). This instrument, validated in term and PT human infants,^18 allows the measurement of respiratory system mechanics in uncooperative subjects (not intubated and breathing spontaneously) by applying a pressure stimulus at the airway opening and measuring the resulting flow. The inventors used a small canine mask (product number 93815026; Midmark Corp., Versailles, OH). The FOT device was calibrated daily, and the use followed the manufacturer's instructions. The inventors used the standard TremoFlo-supplied software without modifications. The software enables post hoc inspection of the measurement time course. As recommended by the manufacturer, any measurement with a leak was discarded. FOT measurements were made for the FPT lambs at 1 month corrected postnatal age (1 moC; DOL60) and 2 moC (DOL90). The comparison time points for term reference lambs were matched for corrected postnatal age.
FOT analysis was done on lambs that stood prone, supported by a veterinary sling. The lambs were given Lorazepam (0.1 mg/Kg, intramuscularly) to keep them calm. The mask was placed over their muzzle and held in place by a tender. The lambs were habituated to the sling and mask before testing was done. FOT was used to measure respiratory system resistance and reactance in four steps: (1) baseline, (2) bronchodilator (albuterol), (3) bronchoconstrictor (methacholine challenge), and (4) bronchodilator (albuterol). The inventors used an Aeroneb Pro nebulizer (Aerogen Ltd, Galway, Ireland) connected to the mask. The inventors repeatedly measured tissue O2 saturation by pulse oximetry, heart rate, and blood pressure. After the baseline measurement, the inventors nebulized albuterol (1.5 mL; Hi-Tech Pharmacal Co., Amityville, NY) to dilate the airways in each lamb before methacholine challenge. Airway responsiveness was assessed during stepwise increases in nebulized methacholine (Provocholine; Pancap, Inc., Markham, Ontario, Canada), according to the ATS 1999 guideline^19 and reported by the inventors for FPT and term reference lambs.^14 Methacholine concentration was doubled for each step, starting from 0.06 mg/mL up to a maximum concentration of 4.00 mg/mL. At the end of the methacholine challenge steps, 1.5 mL of albuterol was nebulized to dilate the airways. All lambs tolerated the procedure, which took 45-60 min.

[2] = tested on: IL-1β, IL-6, IL-10 and soluble CD163 in lamb plasma; assay: Plasma cytokine and soluble CD163 ELISA in lambs; assay type: in vivo; details: early-stage study, PT lambs vs vehicle
From the text: ELISA: The serum and bronchoalveolar lavage (BAL) fluid samples were used to quantify cytokine and soluble CD163 (sCD163) concentrations. The ELISA experiment analysis used commercially available ELISA kits, which were quantified using a plate reader. The inventors used GraphPad Prism V. 10.4. All sheep (ovine) ELISA kits were used within the expiry dates. Ovine IL-1β(Cat #ELO-IL1β), and ovine IL-6 (Cat #ELO-IL6) ELISA kits were purchased from RayBiotech, Peachtree Corners, GA, USA, sheep IL-10 (Cat #E12817Sh-96) was purchased from Lifeome Biolabs, Oceanside, CA, sheep CD163 (cat #MBS9364870) was purchased from MyBioSource, Inc. San Diego, CA, and Pierce™ BCA Protein Assay Kit (Cat #23227) from Thermo Fischer Scientific, Rockford, IL.

TLR4 pathway = assay: Western blot of TLR4 pathway proteins in hPBMC and CBMCs; assay type: cell-based, human; details: 100 μM, alone and with LPS 50 ng/mL
Method: FIGS. 14A to 14D show Western Blot analysis for quantification of TLR4 pathway proteins and densitometry of (FIGS. 14A-FIG. 14C) using adult hPBMC and (FIG. 14D) CBMCs. After treatment with AVR-48 [100 μM], LPS [50 ng/mL], and in combination indicates AVR-48 activates TLR4 pathway via increasing phospho-MyD88 and phospho-TTRAP, with no activation via TRAM, and inhibiting the phosphorylation of the NF-kB pathway.
(§1) CBMCs were treated with either AVR-123 [100 μM], LPS [50 ng/mL] or AVR-123+LPS for 24 h. […] (FIG. 23G) AVR-123 decreases phosphorylated NFkB alone and when combined with LPS in CBMCs via western blot analysis. N=3, One-way ANOVA.

[3] = tested on: cord blood mononuclear cells (CBMCs); assay: Cytokine profile in LPS-challenged CBMCs; assay type: cell-based, human; details: compound 100 μM + LPS 50 ng/mL vs LPS treated cells
Method: FIGS. 15A TO 15F show the AVR-48 cytokine profile in CBMCs. Cells treated with AVR-48 [100 μM], LPS [50 ng/mL] and AVR-48+LPS show a decrease (˜2-4-fold) in cytokine signal in (FIG. 15A) TNF-α, (FIG. 15B) IL-1β, (FIG. 15C) IL-10, (FIG. 15D) IL-12, (FIG. 15E) IL-6, and (FIG. 15F) IL-8, and indicates a reduced […] response as compared to LPS treated cells solo. N=3, One-way ANOVA was used for analysis.
as §1

hPBMCs [4] = assay: Macrophage lineage in hPBMCs over 3, 7 and 10 days; assay type: cell-based, human; details: 100 μM
hPBMCs [5] = assay: hPBMCs treated 7 days with AVR-48, LPS, MPLA, Influenza-A peptides, flow cytometry; assay type: cell-based, human
[6] = efficacy dose 10 mg/kg intraperitoneal injection; read-out: Cmax in mouse pups' plasma; cited from earlier work
[7] = FOT, d90, FPT lambs vs FPT vehicle
[8] = ventilator-measured, invasive mechanical ventilation DOL1-7, PT lambs vs vehicle

In the case of `CC(=O)NC1C(Oc2ccc([N+](=O)[O-])cc2)OC(CO)C(O)C1O` (stereo not shown) [AVR-48], the “resistance and reactance of the respiratory system” value ([1]; FOT, DOL 60, late-stage study) is reported as “No significant difference”, the “baseline reactance at 5 and 10 Hz (upper and large airways)” value [1, 7] is reported as “significantly less negative” and the “baseline resistance at 5 Hz (upper and large airways)” value [1, 7] is reported as “significantly lower”. For the same compound, the “reactance at 5 and 10 Hz after methacholine challenge” value [1, 7] was “significantly less negative”, the “reactance at 7-20 Hz after albuterol nebulization” value [1, 7] was “less negative reactance” and the “resistance at 5 Hz after methacholine challenge” value [1, 7] was “significantly lower resistance”. The “resistance at 7-20 Hz after albuterol nebulization” value [1, 7] was “significantly lower resistance”, the “respiratory system resistance in large (5 Hz), middle (7-20 Hz), and small (41 Hz) airways” value ([1]; FOT, end of early-stage study (DOL10), PT lambs 3.0 mg/kg vs vehicle) was “significantly lower resistance” and the “airway reactance AX (area under the curve below zero)” value ([1]; FOT, end of early-stage study (DOL10), PT lambs vs vehicle) was “significantly lower”. For the same compound, the dynamic lung compliance [1, 8] was “No statistically significant differences; also recorded: consistently lower”, the lung resistance [1, 8] was “No statistically significant differences” and the “plasma concentration of IL-1β” value ([2]; 6-10 h) was “significantly lower”. For the same compound, the “plasma concentration of IL-6” value ([2]; 72-75 h) was “significantly lower”, the “plasma concentration of IL-10” value ([2]; 138-150 h) was “significantly higher” and the “activation via TRAM” value (TLR4 pathway) was “no activation”. The phospho-MyD88 (TLR4 pathway) was “increasing”, the phospho-TTRAP (TLR4 pathway) was “increasing” and the “decrease in IL-1β” value [3] was 2-4 fold. For the same compound, the “decrease in IL-6” value [3] was 2-4 fold, the “decrease in IL-8” value [3] was 2-4 fold and the “decrease in IL-10” value [3] was 2-4 fold. For the same compound, the “decrease in IL-12” value [3] was 2-4 fold, the “decrease in TNF-α” value [3] was 2-4 fold and the macrophage lineage (hPBMCs [4]; day 3 (IFN-γ high CD206 high)) was “highest % of intermediate macrophage”. The macrophage lineage (hPBMCs [4]; day 7 (IFN-γ low CD206 high)) was “polarizing to M2 phenotype”, the macrophage lineage (hPBMCs [4]; day 10 (IFN-γ high CD206 low)) was “finally to M1” and the “TEMRE effector T-cell production” value (hPBMCs [5]; compared to MPLA) was “stimulated more”. The “CD8+ IFN-g+ T-memory and helper cell recruitment” value (hPBMCs [5]; in the presence of influenza-A peptide) was “perturbated”, the “CD4+ T-cells production” value (hPBMCs [5]; vs MPLA) was “outperformed MPLA” and the “CD27− T-cells production” value (hPBMCs [5]; vs MPLA) was “outperformed MPLA”. For the same compound, the Cmax [6] was 5.7 µM.
